Data from patent US8901276B2, “Peptide reagents and methods for detection of colon dysplasia” (The Regents of the University of Michigan, priority 2010, dated 2014).
Where no end group is shown, it is not given here. The star is where a group is joined. 5‑TAMRA = CN(C)c1ccc2c(-c3ccc(C(=O)*)cc3C(=O)[O-])c3ccc(N(C)C)cc3[o+]c2c1; DEAC = CCN(CC)c1ccc2cc(C(=O)*)c(=O)oc2c1; Cy5.5 = Cy5.5 fluorescent dye; Ahx = NCCCCCC(=O)O

Legend:
[1] = tested on: colonic adenomas; test: In vivo imaging with non-scanning endoscope, FITC-labeled peptides; design: species or system CPC; Apc mice; conditions: Non-scanning Endoscopy Results; FITC label; mean ± SD
Description: Specific binding of the candidate peptides to primary dysplastic colonic epithelial cells were validated on flow cytometry ex vivo and with small animal endoscopy in vivo using FITC-labeled peptides using a non-scanning white light endoscope.

[2] = tested on: colonic adenomas; test: In vivo imaging with multi-spectral scanning fiber endoscope; design: species or system CPC; Apc mice; conditions: 100 μM topical, 5 min; for Average T/B: Multi-Spectral Scanning Fiber Endoscopy Results, mean ± SD
Description: A scanning fiber endoscope system was adapted for fluorescence detection in three channels (RGB) using excitation at 440 (NDHB510APA, Nichia, Tokyo, Japan), 532 (FTEC532-V10TA0, Blue Sky Research, Milpitas, Calif.) and 635 (FMXL635-017TA0B, Blue Sky Research) nm using an RGB coupler (OZ Optics, Ottawa, Canada). The three laser sources are delivered simultaneously into the scanning fiber, and focused to the same point on the illumination plane using a custom lens assembly, as shown in the schematic in FIG. 2A. The laser power coming out of the distal tip of the endoscope is <2 mW for each channel, a level consistent with a non-significant risk (NSR) determination by the U.S. Food and Drug Administration (FDA, 21 CFR 812) for future human clinical studies. The amplitude of the spiral scanner was reduced to achieve a divergence angle of 70 deg (max 100 deg) to minimize noise in the periphery of the image. Fluorescence is collected by a ring of 12 step-index plastic optical fibers (POF) with numerical aperture (N.A.) of 0.63 and outer diameter of 250 μm (Toray Industries Inc, Tokyo, Japan).
The CPC;Apc mice were first imaged with white light using a non-scanning endoscope (Karl Storz Veterinary Endoscopy, Goleta, Calif.) to assess for the presence of colonic adenomas that have a size between ˜0.5 to 4 mm in diameter. Any adenomas were rinsed of debris including stool and mucous, by delivering tap water through a 3 Fr instrument channel. Then, the fluorescent-labeled peptides were delivered topically at a concentration of 100 μM in 1×PBS in a volume of 1 mL to the distal 4 cm of the colon and rectum. The peptides were incubated for 5 minutes and then the unbound peptides were rinsed away with tap water 3 times. The colon was inspected for any residual peptide, and when clean, the colon was insufflated with air and imaged with the multi-spectral scanning fiber endoscope.
Videos collected during endoscopy were exported as avi video files and converted into sequential png images using Apple QuickTime. White light and fluorescence images for each adenoma were analyzed in NIH Image J. The white light image was utilized to draw a region of interest (ROI) around the adenoma or adjacent normal appearing colonic mucosa which was then superimposed onto the fluorescence image. The mean fluorescence intensities were calculated for each ROI, and a target/background (T/B) ratio was calculated for each colonic adenoma and compared to the surrounding normal appearing mucosa.

[3] = tested on: HT29 cells; test: Competitive inhibition assay (bound phage counts); assay type: cell-based, human
Protocol: Bound phage counts were performed to observe the competitive inhibition effect of the synthetic candidate heptapeptide with its representative phage counterpart in triplicate. HT29 cells (5×10^6) were detached with enzyme free cell dissociation buffer and blocked with 1% BSA containing PBS for 30 min at 4° C. The cells were washed and incubated with phage (2×10^11) for 15 min. Then, the cells were washed with PBS and immediately incubated with different concentrations of unlabeled peptide ranging from 10 to 200 μM for an additional 15 min. Cells were washed 3× and the bound phages were recovered as described above in bound phage counts. The bound phages were then tittered and counted, and the relative inhibition rate was calculated. The inhibition activity of no-insert WT phage by synthetic candidate peptide and phage with unrelated synthetic control peptide were used as negative controls.

[4] = tested on: colonic dysplasia (adenomas); test: In vivo NIR fluorescence endoscopic imaging; design: species or system CPC;Apc mice; conditions: for fluorescence signal on in vivo NIR image: 100 μM topical, 5 min; for average T/B ratio: adenoma/adjacent normal ratio as defined
Description: Anesthesia was induced and maintained with inhaled isofluorane mixed with oxygen via a nose cone at a dose of 4% and 2% at a flow rate 0.5 liter/min, respectively. Prior to peptide administration, the colon of each mouse was cleaned with a tap water lavage to remove debris. The conventional white light endoscope was used first with a color camera to identify the presence of adenomas. The colon was then rinsed with water until all of the visible mucous was removed. The Cy5.5-labeled peptides were then delivered at a concentration of 100 μM in 1×PBS containing 2.5% DMSO […] through the instrument channel. The peptides were allowed to incubate for 5 minutes, and then the colon was cleansed 3 times with a tap water to remove any unbound peptide. Prior to imaging, the colon was inspected for residual peptide solution, and when clean, the colon was insufflated with air for imaging. Fluorescence images were collected using Axiovision 4.8.1 software.
Images collected during endoscopy were recorded as .zvi files and converted into .tiff images using Axiovision Lite software. Consecutive white light and fluorescence images for each adenoma were analyzed. Regions of interest (ROI) around the adenoma and adjacent normal-appearing mucosa were defined on the color and fluorescence images using Labview®. The white light image was utilized to draw an ROI around the adenoma or adjacent normal appearing colonic mucosa which was then superimposed onto the fluorescent image. Mean gray scale values were calculated for each ROI, and an adenoma/normal colon, or a T/B ratio, value was then calculated for each adenoma. The mean fluorescence intensities were calculated from each ROI to determine the ratio of the average intensities for the adenomas to that from adjacent normal-appearing mucosa, or T/B ratio.
Two-tailed independent samples t-tests (significance level at α=0.05) were used to determine statistical significance between the T/B ratio for the QPI-Cy5.5 and YTT-Cy5.5 peptides binding to colonic adenomas in the CPC;Apc mice. All statistical computations were processed either using statistical software (SPSS15.0.; SPSS, Chicago, Ill.) or Minitab (Minitab Inc. State College, Pa.).

[5] = tested on: human colonic mucosa sections (normal, dysplasia, adenocarcinoma); test: Cy5.5-labeled peptide staining of human colonic mucosa sections; conditions: for sections of adenocarcinoma stained / sections of dysplasia stained: stained/total sections
Protocol: All specimens were obtained with approval from the University of Michigan Institutional Review Board (IRB). Freshly resected specimens of human colonic mucosa were frozen in OCT and sectioned with 10 μm thickness using Microm-HM-550 Microtome (EquipNet, Inc. Canton, Mass.). The sections were then air dried, washed with PBS 1×, and incubated with the Cy5.5-labeled peptides at a concentration of 10 μM for 15 min at RT. The sections were washed 3× for 1 min in PBS and fixed with 4% paraformaldehyde for 10 min. After fixation, the sections were washed again (1×) and mounted with ProLong Gold reagent with DAPI (Invitrogen, Carlsbad, Calif.). The sections were imaged under a confocal microscope (Leica TCS SP5 Microsystems, Bannockburn, Ill.). Adjacent sections were sent for routine histology. The average intensity from the entire field-of-view of each image was calculated using Matlab (Mathworks, Natick, Mass.).
For the ex-vivo peptide immunohistochemistry, the nonparametric Kruskal-Wallis test was used to determine if observed differences are statistically significant among all three pathological classifications. The nonparametric Mann-Whitney test was used for comparisons between two independent samples, and differences with p<0.05 were considered significant.

For “ANYPREP-FITC: ANYPREP labeled with 5′-FITC at the C-terminus via GGGSK linker (not fully specified; GGGSK linker, FITC)”, the “Average T/B” value [1] was 0.94 ± 0.11.

For “GGGAGGGAGGGK (DEAC)-NH2 (GGGAGGGAGGGK(DEAC)-NH2; N-terminus assumed; SMILES CCN(CC)c1ccc2cc(C(=O)NCCCC[C@H](NC(=O)CNC(=O)CNC(=O)CNC(=O)[C@H](C)NC(=O)CNC(=O)CNC(=O)CNC(=O)[C@H](C)NC(=O)CNC(=O)CNC(=O)CN)C(N)=O)c(=O)oc2c1) [GGGAGGG-DEAC, reference compound]”, the “binding to colonic dysplasia/adenomas on fluorescence images” value (from here on “binding to colonic dysplasia/adenomas”) [2] was “minimal signal” and the “Average T/B” value [2] was 1.19±0.09.

“KCCFPAQ [Peptide 2, heptapeptide from M13 phage display]” was tested, and the “bound KCCFPAQ phage count” value ([3]; HT29, 200 μM unlabeled KCCFPAQ peptide) was 3.8×10^4±6.6×10^3, the “inhibition of WT phage binding” value ([3]; addition of KCCFPAQ peptide) was “did not inhibit” and the “rate of inhibition at saturation” value ([3]; peptide concentration above ˜75 μM) was greater than 98%. For the same substance, the “inhibition of KCCFPAQ phage binding to HT29 cells” value ([3]; up to 200 μM unlabeled peptide) was “in a dose-dependent manner”.

“AKPGYLS-FITC: AKPGYLS labeled with 5′-FITC at the C-terminus via GGGSK linker (not fully specified; GGGSK linker, FITC)” was tested, and the “Average T/B” value [1] was 1.53 ± 0.48.

“QPI-Cy5.5: QPIHPNNM conjugated with Cy5.5 on the N-terminus via an amino-hexanoic acid linker ({Cy5.5-Ahx}-QPIHPNNM; not fully specified)” was tested, and the “fluorescence signal on in vivo NIR image” value [4] was “significant contrast enhancement”, the “average T/B ratio” value [4] was 3.42±1.30 and the “staining of dysplasia and adenocarcinoma” value ([5]; 10 μM, 15 min, RT) was “consistently stained”. For the same substance, the “staining of normal colonic mucosa” value ([5]; 10 μM, 15 min, RT) was “did not stain any of the 7 sections”, the “staining of normal colonic mucosa” value ([5]; 10 μM, 15 min, RT, listed as QPI-CY5.5) was “no binding” and the “T/B ratio QPI-Cy5.5 in comparison to YTT-Cy5.5” value ([5]; adenocarcinoma) was 2.9. The “intensity ratio relative to normal colonic mucosa” value ([5]; adenocarcinoma) was 6.5, the “mean NIR fluorescence intensity” value ([5]; adenocarcinoma) was 9.8±2.4 AU and the “T/B ratio QPI-Cy5.5 in comparison to YTT-Cy5.5” value ([5]; dysplasia) was 26.7. The “intensity ratio relative to normal colonic mucosa” value ([5]; dysplasia) was 7.1, the “mean NIR fluorescence intensity” value ([5]; dysplasia) was 10.7±3.3 AU and the “mean NIR fluorescence intensity” value ([5]; normal) was 1.5±1.0 AU. The “T/B ratio QPI-Cy5.5 in comparison to YTT-Cy5.5” value ([5]; normal mucosa) was 1.8, the “sections of adenocarcinoma stained” value [5] was 8/10 and the “sections of dysplasia stained” value [5] was 6/8.

For “NLVNLLP-FITC: NLVNLLP labeled with 5′-FITC at the C-terminus via GGGSK linker (not fully specified; GGGSK linker, FITC)”, the “Average T/B” value [1] was 0.99 ± 0.06.

With “GGGAGGG-FITC: FITC-labeled GGGAGGG control peptide; probably the same as FITC-Control peptide 2 (also: FITC label, site not given here) [reference compound]” the “Average T/B” value [1] was 1.05 ± 0.05.

In the case of YTTNKH [YTT-Cy5.5, reference compound], the “fluorescence signal on in vivo NIR image” value [4] is reported as “negligible signal”, the “average T/B ratio” value [4] is reported as 1.88±0.38 and the “staining of any specimen (normal, dysplasia, adenocarcinoma)” value ([5]; 10 μM, 15 min, RT) is reported as “did not stain any of the specimens”. For the same substance, the “staining of normal colonic mucosa” value ([5]; 10 μM, 15 min, RT) was “did not stain”, the “sections of adenocarcinoma stained” value [5] was 5/10 and the “sections of dysplasia stained” value [5] was “did not stain”.

For “LTTHYKL-CF633: LTTHYKL labeled with CF633 (also: CF633 label, place not given here)”, the “binding to colonic dysplasia/adenomas” value [2] was “more subtle”.

With “GGGAGGGAGGGK (5-TAMRA)-NH2 (GGGAGGGAGGGK(5‑TAMRA)-NH2; N-terminus assumed; SMILES C[C@H](NC(=O)CNC(=O)CNC(=O)CN)C(=O)NCC(=O)NCC(=O)NCC(=O)N[C@@H](C)C(=O)NCC(=O)NCC(=O)NCC(=O)N[C@@H](CCCCNC(=O)c1ccc(-c2c3ccc(N(C)C)cc3[o+]c3cc(N(C)C)ccc23)c(C(=O)[O-])c1)C(N)=O) [GGGAGGG-TAMRA, reference compound]” the “binding to colonic dysplasia/adenomas” value [2] was “minimal signal” and the “Average T/B” value [2] was 1.32±0.10.

With “LTTHYKL-FITC: LTTHYKL labeled with 5′-FITC at the C-terminus via GGGSK linker (not fully specified; GGGSK linker, FITC)” the “Average T/B” value [1] was 1.50 ± 0.73.

With “ATTVPAS-FITC: ATTVPAS labeled with 5′-FITC at the C-terminus via GGGSK linker (not fully specified; GGGSK linker, FITC)” the “Average T/B” value [1] was 1.06 ± 0.33.

For “ALTPTPP-FITC: ALTPTPP labeled with 5′-FITC at the C-terminus via GGGSK linker (not fully specified; GGGSK linker, FITC)”, the “Average T/B” value [1] was 1.19 ± 0.18.
